In test [1] the test system is human coagulation proteome. As to the kind of experiment: Synthetic coagulation proteome assay (thrombin generation). It is filed as biochemical. The protocol: This assay is carried out using an established protocol as described previously (Brummel-Ziedens 2008). Briefly, a pro-cofactor solution containing re-lipidated tissue factor (10 pM; molar ratio PCPS:TF=5000) was incubated with 4 μM PCPS in HBS (20 mM HEPES and 150 mM NaCl at pH 7.4) and 2 mM CaCl2 for 8 min at 37° C. Factor V (40 nM) and Factor VIII (1.4 nM) were then added to the mixture prior to initiation of the reaction to activate the protease zymogens in the blood coagulation cascade. The activation reaction was initiated by addition of the pro-cofactor solution to a zymogen solution containing prothrombin (2.8 μM), Factor VII (20 nM), Factor Vila (0.2 nM), FX (340 nM), Factor IX (180 nM), Factor XI (60 nM), TFPI (5 nM), antithrombin III (6.8 μM) […]
At selected time points after initiation of the reaction, 10 μL aliquots were withdrawn from the reaction mixture and quenched in 20 mM EDTA in HBS (pH 7.4) containing 0.2 mM Spectrozyme™ TH and assayed immediately for the proteolytic activity of thrombin. The hydrolysis of Spectrozyme™ TH was monitored by the change in absorbance at 405 nm using a SpectraMax™ plate reader (Molecular Devices Corp., Menlo Park, Calif., USA). Concentration of thrombin generated by the reaction was calculated from a standard curve prepared by serial dilutions of known concentrations of α-thrombin using the fibrinogen clotting assay (DiMaio 1990). Fibrinogen solution was freshly prepared by dissolving about 0.5% (w/v) fibrinogen in 50 mM Tris-HCl, 100 mM NaCl, 0.1% PEG-8000, pH 7.6 and filtering the resulting solution through a hydrophilic membrane of 0.45 μm polyvinylidene fluoride (PVDF) with low protein binding. The concentration of fibrinogen after filtration was determined by using the extinction coefficient of 15.0 for 1% fibrinogen at 280 nm. […] Thrombin-induced clotting of fibrinogen was followed at 25° C. by measuring the optical absorbance at 420 nm. The clotting time was obtained from extrapolation of the slope at the point of inflection to the zero absorbance baseline. […]

Test [2] concerns FeCl3-induced arterial thrombosis (carotid artery). As to the kind of experiment: FeCl3-induced arterial model of thrombosis in rats (time to occlusion). It is filed as in vivo. The conditions noted are these: rat, single bolus 0.2 mg/kg plus maintenance infusion 0.00433 mg/kg/min. The protocol:
Male Sprague-Dawley rats (250-310 g; Charles River Laboratories, St-Constant, QC, Canada) were acclimated for at least 3 days prior to the start of the study. Animals were housed in microisolator cages and were kept on a 12-hr light/dark cycle with constant temperature and humidity. Food and water were provided ad libitum. Various anti-thrombotic agents and peptides of this invention were dissolved in saline (0.9% sodium chloride) prior to use.
The FeCl3-induced arterial model of thrombosis in rats was also generated as described by Wang and Xu (Wang 2005) with some modifications (Couture 2011). Briefly, rats were anesthetized with a 2.5% isoflurane/oxygen mixture and placed on a heat source (35-37° C.). An incision was made over the right carotid artery, and a segment of the artery was exposed via blunt dissection. A Doppler flow probe (Model MA1PRB, Transonic System Inc., Ithaca, N.Y., USA) connected to a perivascular flow module (TS420, Transonic System Inc., Ithaca, N.Y., USA) was then attached to the carotid artery to monitor blood flow. Data were collected and analyzed using the MP100 Biopac™ Systems (Biopac Systems, Santa Barbara, Calif., USA), and the AcgKnowledge™ software (Biopac Systems, Santa Barbara, Calif., USA), respectively. Baseline blood flow was recorded for a minimum of 15 minutes until readings stabilized. Aquasonic 100 gel (Parker Laboratories, Inc., Fairfield, N.J., USA) was added to help conductivity and any fluid accumulating at the site of surgery was removed during data sampling without touching the probe. […] One minute after drug administration, a piece of filter paper (Gel Blot Paper, GB003, Whatman, Piscataway, N.J., USA; 7 mm diameter) saturated with 20% FeCl3 (EMD Chemicals Inc., Gibbstown, N.J., USA) was placed on the exposed surface of the carotid artery and incubated for 3.5 minutes. During the application of FeCl3, the neck region was covered with aluminum foil. At the end of the incubation period, the filter paper was removed and the exposed carotid was covered with a saline-soaked gauze. Time to occlusion was defined as the time from the application of FeCl3 until blood flow decreased to zero. […] Preparing and processing each animal took approximately 1 hr and 7 animals were treated each day. Control animals were always included when the other treatments were being administered. For this reason, the number of animals in the control group is higher than that of the treated-groups.
Statistical analysis was conducted using GraphPad™ Prism (GraphPad Software Inc., San Diego Calif., USA). Data were analyzed using one-way ANOVA with post-hoc Bonferroni correction for multiple comparisons. The relationship between thrombus weight and thrombus volume was determined by linear regression. […]

For test [3], the system named is fresh blood withdrawn from rats with venous thrombosis. As to the kind of experiment: Clotting time (aPTT) of fresh blood withdrawn from treated rats. It counts as in vivo. The conditions noted are these: rat, 0.2 mg/kg bolus + 0.00433 mg/kg/min infusion; 20 minutes after administration versus before. The protocol:
FIG. 23 illustrates the clotting times (aPTT) determined for fresh blood withdrawn from rats with venous thrombosis at three time points, the first before drug administration and vessel injury, the second at 20 minutes after FeCl3 application and the third 60 minutes following injection of the respective thrombin inhibitors. Clotting times (aPTT) are shown for different rats administered with each thrombin inhibitor, ZIP4 for MH2-wZIP4, ZIP5 for MH2-wZIP5 and T218 for BRI-T218. Dosage levels for every compound were 0.2 mg/kg for the single-bolus injection and 0.00433 mg/kg/min for the maintenance infusion,
Terminal blood samples were analyzed for aPTT within 15 to 30 minutes of collection using a Coag DX Analyzer with aPTT citrate cartridges (IDEXX Laboratories, Westbrook, Me., USA).

With `CC[C@H](C)[C@H](N)C(=O)N[C@@H](CCCNC(=N)N)C(=O)N[C@@H](Cc1ccccc1)C(=O)N[C@H](C(=O)N[C@@H](CC(=O)O)C(=O)NCC(=O)N[C@@H](CCC(=O)O)C(=O)N[C@@H](Cc1c[nH]c2ccccc12)C(=O)N[C@H](C(=O)N[C@@H](Cc1c[nH]c2ccccc12)C(=O)N[C@@H](CC(=O)O)C(=O)N[C@@H](CC(=O)O)C(=O)N[C@@H](C)C(=O)N[C@H](C(=O)N[C@@H](CCCCN)C(=O)N[C@H](C(=O)N[C@@H](Cc1c[nH]c2ccccc12)C(=O)N[C@H](C(=O)N[C@@H](Cc1c[nH]c2ccccc12)C(=O)N[C@H](C(=O)N[C@@H](CCC(=O)O)C(=O)NCC(=O)N[C@@H](CC(=O)O)C(=O)N[C@@H](Cc1ccccc1)C(=O)N[C@@H](CCC(=O)O)C(=O)N[C@@H](CCC(=O)O)C(=O)N[C@H](C(=O)N1CCC[C@H]1C(=O)N[C@@H](CCC(=O)O)C(=O)N[C@@H](CCC(=O)O)C(=O)N[C@@H](Cc1ccc(O)cc1)C(=O)N[C@@H](CC(C)C)C(=O)N[C@@H](CCC(N)=O)C(=O)O)[C@@H](C)CC)[C@@H](C)O)[C@@H](C)O)[C@@H](C)O)[C@@H](C)O)[C@@H](C)O)[C@@H](C)O` [MH2-wZIP4], the “delay of thrombin burst / onset of thrombin generation” value in test [1] (37° C.) was “very little delay in the onset of thrombin generation”. For the same compound, the “delay of onset of thrombin generation with increase of bulk temperature” value in test [1] (42° C. versus 37° C.) is “delaying effect is increased somewhat”. Moreover, the “anti-thrombotic efficacy in arterial model” value in test [2] is “increases the efficacy”. Further, the “clotting time (aPTT), systemic anticoagulant effect” value in test [3] is given as “only a slight prolongation of the clotting time (aPTT)”.

The values are drawn from patent US10155802B2, “Locally-active anticoagulants and anti-inflammatory agents” (priority 2011, dated 2018).
